Data from patent US8865721B2, “Delta opioid receptor agonist compounds” (priority 2001, dated 2014).
“Also recorded” adds a separate entry of the source. Where two headings read alike, the source gives them in different places.

Assays:
μ opioid receptor = μ opioid receptor (Homo sapiens, UniProt P35372); test: radio-ligand competition binding assay, μ
delta opioid receptor = delta opioid receptor (Homo sapiens, UniProt P41143); test: radio-ligand competition binding assay, δ
κ opioid receptor = κ opioid receptor (Homo sapiens, UniProt P41145); test: radio-ligand competition binding assay, κ
mouse vas deferens [1] = test: in vitro inhibition of electrically stimulated contraction of mouse vas deferens in tissue bath
[2] = system: male CD-1 mice, electrically stimulated ejaculation; test: electroejaculation test in conscious male mice (bipolar rectal probe); assay type: in vivo, mouse; details: for Max. ejaculation Inhibition / Optimal Dose / Effective Dose / Ejaculation Inhibition %: male mice; for Max. ejaculation Inhibition / Optimal Dose: subcutaneous injection; for Max. ejaculation Inhibition: at the optimal dose; for Optimal Dose: dose giving max. ejaculation inhibition; for Effective Dose / Ejaculation Inhibition %: oral; for Ejaculation Inhibition %: at the effective dose
Method: To investigate the efficacy of delta opioid receptor agonists as a treatment for premature ejaculation, intact conscious male mice were electrically stimulated subsequent to the administration of a delta opioid receptor agonist to determine if a delay in ejaculation was observed when compared to administration of a placebo
Male, CD-1 mice (20-30 g) were housed in groups of ten (10) in Plexiglas® chambers with food and water available before any procedure. Animals were maintained on a 12 hour light/dark cycle in a temperature-controlled animal colony. Studies were carried out in accordance with the Guide for the Care and Use of Laboratory animals as adopted and promulgated by the National Institutes of Health.
Specifically, the bipolar electrode probe is an approximately 5 cm long tube having an outer diameter of approximately 0.25 cm with an inner diameter of approximately 0.08. In the center lumen of the elongated tubular body 12 are embedded cathode 16 and anode 18, which are formed of a conductive material, preferably platinum. The cathode 16 and anode 18 are connected at one end to external power supplying means (not shown). Anode 18 extends at the other end all the way to one extremity of the elongated body 12 and forming an anode terminal 22 at such extremity. Cathode 16 only extends to a middle portion of the elongated body 12 and forming a cathode terminal 20 at such middle portion. The cathode terminal 20 is preferably positioned away from the anode terminal 22, at a distance of about 0.5 cm.
The testing delta opioid receptor agonist (SNC-80) was purchased from Tocris Cookson, Inc., Ellisville, Mo., USA, and dissolved in 5% dextrose injection solution. An equimolar amount of aqueous hydrochloric acid was added when the manufacturer packaged the compound in its base form. The placebo was 5% dextrose alone. Each mouse was injected subcutaneously with […] of the SNC-80 compound or with 10 mg/kg of a placebo. 10 minutes after the injection, the test mouse was subjected to electrostimulation. Ten mice were tested for each dose level, the order of each mouse receiving different doses was blinded and in a random manner.
During the testing the mouse was restrained in a cone bag with rear legs extending from the bag. Excess fecal matter was removed from the rectum and the above-discussed lubricated bipolar electrode was inserted approximately 2.5 cm into the rectum. […] The stimulation regime included 4 stimulating events for each voltage lasting 2 seconds with a rest period of 2 seconds between stimulating events until ejaculation occurred or the terminal voltage of 8 volts was reached. A white coagulum ejaculate from the penis indicates a successful ejaculation.
For the electroejaculation test, dose-response lines were constructed as an accumulated ejaculation at a specified voltage. A minimum of 10 mice was used at each dose level. Each dose response was the average of two to three independent experiments. Students' t-test was used to assess unpaired comparison, with […] indicating significance.
Testing was conducted on mice injected with SNC-80 or a buffer vehicle for the control group. […] Each mouse was subjected to electroejaculation at 40 Hz (starting at 3 volts with a gradual increase to 8 volts by increments of 0.5 volts) approximately 10 minutes after subcutaneous administration of SNC-80 at different doses of 0, 0.1, 0.3 and 1 mg/kg. A minimum of 10 mice were used at each dose level. Each does response was the average of two to three independent experiments±SEM.
To determine if SNC-80 inhibits the ejaculation via specific binding to delta opioid receptor, the effect of SNC-80 on ejaculation was tested against the delta opioid selective antagonist naltrindole (NTI). Subcutaneous injections of a control vehicle (CTL), 0.5 mg/kg SNC-80, 0.5 mg/kg SNC-80 plus 0.1 mg/kg of NTI and 0.1 mg/kg of NTI were administered to the mice. A minimum of 10 mice was utilized for each dose level. […]

mouse vas deferens [3] = details: background statement; cited from earlier work
[4] = radio-ligand competition binding per U.S. Pat. Nos. 5,985,880 and 5,807,858, read-out: δ binding affinity
[5] = radio-ligand competition binding per U.S. Pat. Nos. 5,985,880 and 5,807,858, read-out: κ binding affinity

## CCN(CC)C(=O)c1ccc([C@H](c2cccc(O)c2)N2C[C@@H](C)N(Cc3ccccc3)C[C@@H]2C)cc1 [Example 12, 4-((alpha-R)-alpha-((2S,5R)-4-Benzyl-2,5-dimethyl-1-piperazinyl)-3-hydroxybenzyl)-N,N-diethylbenzamide]
μ opioid receptor
  Ki: 1.45 nM
Delta opioid receptor; [4]
  Ki: 0.123 nM
κ opioid receptor; [5]
  Ki: 68.7 nM
Mouse vas deferens [1]
  EC50: 4.4 nM
[2]
  Max. ejaculation Inhibition: 28%
  Optimal Dose: 5 mg/kg

## C=CCN1C[C@@H](C)N([C@H](c2ccc(S(=O)(=O)N(C)C)cc2)c2cccc(O)c2)C[C@@H]1C [Example 40, 4-[(R)-((2R,5S)-4-Allyl-2,5-dimethylpiperazin-1-yl)(3-hydroxyphenyl)methyl]-N,N-dimethylbenzenesulfonamide]
[2]
  Effective Dose: 0.3 mg/kg
  Ejaculation Inhibition %: 50%

## C=CCN1C[C@H](C)N([C@H](c2ccc(C(=O)N(CC)CC)cc2)c2cccc(OC)c2)C[C@H]1C [SNC-80, reference compound]
[2]; 0.1 mg/kg subcutaneous, 40 Hz, FIG. 3
  inhibitory effect on ejaculation at reduced dose: inhibitory effect diminished
[2]; 0.5 mg/kg SNC-80 plus 0.1 mg/kg NTI subcutaneous, 35 Hz, FIG. 4
  inhibitory effect on ejaculation with co-injected antagonist: abolished; also recorded: inhibitory effect was blocked
[2]; 0.5 mg/kg subcutaneous, 35 Hz, 10 minutes after injection, FIG. 4
  reduction of ejaculation (factor): at least 2
[2]; 1 mg/kg subcutaneous, 40 Hz, 10 minutes after injection, FIG. 3
  occurrence of ejaculation versus control group: significantly reduced the occurrence of ejaculation
Mouse vas deferens [3]
  contraction of mouse vas deferens smooth muscle in vitro: block the contraction of mouse vas deferens smooth muscle in vitro

## CCN(CC)C(=O)c1ccc([C@H](c2ccccc2)N2C[C@H](C)N(Cc3cccc(F)c3)C[C@H]2C)cc1 [Example 41, 4-((alpha-S)-alpha-((2R,5S)-2,5-Dimethyl-4-(3-fluorobenzyl)-1-piperazinyl)benzyl)-N,N-diethylbenzamide]
[2]
  Effective Dose: 0.4 mg/kg
  Ejaculation Inhibition %: 75%

## CCN(CC)C(=O)c1ccc([C@H](c2cccc(OC)c2)N2C[C@@H](C)N(Cc3ccccc3F)C[C@@H]2C)cc1 [Example 39, 4-((alpha-R)-alpha-((2S,5R)-2,5-Dimethyl-4-(2-fluorobenzyl)-1-piperazinyl)-3-methoxybenzyl)-N,N-diethylbenzamide]
[2]
  Effective Dose: 10 mg/kg
  Ejaculation Inhibition %: 50%

## 4-(alpha-R)-alpha-((2S,5R)-4-(Cyclopropylmethyl)-2,5-dimethyl-1-piperazinyl)-3-hydroxybenzyl)-N,N-diethylbenzamide [Example 35]
[2]
  Effective Dose: 0.3 mg/kg
  Ejaculation Inhibition %: 60%

## CCN(CC)C(=O)c1ccc([C@H](c2cccc(O)c2)N2C[C@@H](C)N(Cc3ccc(C(=O)O)cc3)C[C@@H]2C)cc1 [Example 13, 4-{(2R,5S)-4-[(R)-(4-Diethylcarbamoylphenyl)(3-hydroxyphenyl)methyl]-2,5-dimethylpiperazin-1-ylmethyl)benzoic acid]
μ opioid receptor
  Ki: 3470 nM
Delta opioid receptor
  Ki: 5.69 nM
κ opioid receptor
  Ki: > 100 nM
Mouse vas deferens [1]
  EC50: 21.2 nM
[2]
  Max. ejaculation Inhibition: 50%
  Optimal Dose: 5 mg/kg

## C=CCN1C[C@H](C)N([C@H](c2ccc(C(=O)N(CC)CC)cc2)c2cccc(OCC(=O)O)c2)C[C@H]1C [Example 14, 3-((alpha-R)-alpha-((2S,5R)-4-Allyl-2,5-dimethyl-1-piperazinyl)-4-(diethylamino-carbonyl)benzyl)phenoxyacetic acid]
μ opioid receptor; radio-ligand competition binding per U.S. Pat. Nos. 5,985,880 and 5,807,858, read-out: μ binding affinity
  Ki: 162 nM
Delta opioid receptor
  Ki: 11.1 nM
κ opioid receptor
  Ki: > 100 nM
Mouse vas deferens [1]
  EC50: 7.2 nM
[2]
  Effective Dose: 0.01 mg/kg
  Ejaculation Inhibition %: 45%
  Max. ejaculation Inhibition: 35%
  Optimal Dose: 10 mg/kg

## CCN(CC)C(=O)c1ccc([C@H](c2cccc(OCC(=O)O)c2)N2C[C@@H](C)N(Cc3ccccc3)C[C@@H]2C)cc1 [Example 15, 3-((alpha-R)-alpha-((2S,5R)-4-Benzyl-2,5-dimethyl-1-piperazinyl)-4-(diethylaminocarbonyl)benzyl)phenoxyacetic acid]
[2]
  Effective Dose: 3 mg/kg
  Ejaculation Inhibition %: 66%

## CCN(CC)C(=O)c1ccc([C@H](c2cccc(OC)c2)N2C[C@@H](C)N(Cc3ccccc3)C[C@@H]2C)cc1 [Example 38]
[2]
  Effective Dose: 3 mg/kg
  Ejaculation Inhibition %: 33%

## Oc1ccc2c3c1O[C@H]1c4[nH]c5ccccc5c4C[C@@]4(O)[C@@H](C2)N(CC2CC2)CC[C@]314 [NTI, naltrindole, reference compound]
[2]; 0.1 mg/kg subcutaneous, 35 Hz, FIG. 4
  ejaculation response, antagonist alone: did not affect the ejaculation response

## CCN(CC)C(=O)c1ccc([C@H](c2cccc(O)c2)N2C[C@@H](C)N(Cc3ccc(F)cc3)C[C@@H]2C)cc1 [Example 11, 4-((alpha-R)-alpha-((2S,5R)-2,5-Dimethyl-4-(4-fluorobenzyl)-1-piperazinyl)-3-hydroxybenzyl)-N,N-diethylbenzamide]
μ opioid receptor
  Ki: 27.1 nM
Delta opioid receptor; [4]
  Ki: 1.23 nM
κ opioid receptor; [5]
  Ki: > 100 nM
Mouse vas deferens [1]
  EC50: 2.8 nM
[2]
  Max. ejaculation Inhibition: 30%
  Optimal Dose: 5 mg/kg

## CCN(CC)C(=O)c1ccc([C@H](c2cccc(O)c2)N2C[C@@H](C)N(Cc3cccc(F)c3)C[C@@H]2C)cc1 [Example 36, 4-((alpha-R)-alpha-((2S,5R)-2,5-Dimethyl-4-(3-fluorobenzyl)-1-piperazinyl)-3-hydroxybenzyl)-N,N-diethylbenzamide]
[2]
  Effective Dose: 3 mg/kg
  Ejaculation Inhibition %: 60%

## CCN(CC)C(=O)c1ccc([C@H](c2ccccc2)N2C[C@@H](C)N(Cc3ccc(O)cc3)C[C@@H]2C)cc1 [Example 37, 4-((alpha-S)-alpha-((2S,5R)-2,5-Dimethyl-4-(4-hydroxybenzyl)-1-piperazinyl)-benzyl)-N,N-diethylbenzamide]
[2]
  Effective Dose: 3 mg/kg
  Ejaculation Inhibition %: 50%

## CCN(CC)C(=O)c1cccc([C@H](c2cccc(O)c2)N2C[C@@H](C)N(Cc3cccc(O)c3)C[C@@H]2C)c1 [Example 17, N,N-Diethyl-3-((R)-((2S,5R)-2,5-dimethyl-4-(3-hydroxybenzyl)piperazin-1-yl)(3-hydroxyphenyl)methyl)benzamide]
μ opioid receptor
  Ki: 1.28 nM
Delta opioid receptor; [4]
  Ki: 0.66 nM
κ opioid receptor; [5]
  Ki: 20.9 nM
Mouse vas deferens [1]
  EC50: 2.9 nM
[2]
  Max. ejaculation Inhibition: 50%
  Optimal Dose: 1 mg/kg

## CCN(CC)C(=O)c1ccc([C@H](c2cccc(OC)c2)N2C[C@@H](C)N(Cc3ccc(F)cc3)C[C@@H]2C)cc1 [Example 29, 4-((alpha-R)-alpha-((2S,5R)-2,5-Dimethyl-4-(4-fluorobenzyl)-1-piperazinyl)-3-methoxybenzyl)-N,N-diethylbenzamide]
[2]
  Effective Dose: 3 mg/kg
  Ejaculation Inhibition %: 38%
